Measurements taken from US7179823B1, “5-membered n-heterocyclic compounds with hypoglycemic and hypolipidemic activity” (Takeda Pharmaceutical Company Limited, priority 1999, dated 2007).

biological target: T1, PPARγ-RXRα heterodimer (Homo sapiens, UniProt P37231); test: PPARγ-RXRα heterodimer ligand activity (luciferase reporter, PPARγ:RXRα:4ERPP/CHO-K1 cells); format: cell-based; details: 48 hours, concentration for 50% of the maximum fold induction
T1 construct: expressed in transfected cells; host or cells: CHO-K1
T1 sequence (P37231 1-477 isoform P37231-2): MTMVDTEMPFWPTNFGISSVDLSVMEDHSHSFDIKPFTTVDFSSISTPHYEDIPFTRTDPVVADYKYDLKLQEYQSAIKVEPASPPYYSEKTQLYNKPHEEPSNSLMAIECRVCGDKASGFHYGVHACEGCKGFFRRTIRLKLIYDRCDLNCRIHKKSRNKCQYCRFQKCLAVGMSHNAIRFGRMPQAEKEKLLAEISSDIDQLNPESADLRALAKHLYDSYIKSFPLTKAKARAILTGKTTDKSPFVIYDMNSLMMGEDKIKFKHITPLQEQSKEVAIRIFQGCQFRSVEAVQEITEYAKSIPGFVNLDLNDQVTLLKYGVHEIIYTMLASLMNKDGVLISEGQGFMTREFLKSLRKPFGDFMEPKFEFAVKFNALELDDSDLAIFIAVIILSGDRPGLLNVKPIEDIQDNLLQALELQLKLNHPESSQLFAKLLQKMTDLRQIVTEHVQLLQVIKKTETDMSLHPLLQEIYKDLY
T1 sequence (P19793 1-462 partner): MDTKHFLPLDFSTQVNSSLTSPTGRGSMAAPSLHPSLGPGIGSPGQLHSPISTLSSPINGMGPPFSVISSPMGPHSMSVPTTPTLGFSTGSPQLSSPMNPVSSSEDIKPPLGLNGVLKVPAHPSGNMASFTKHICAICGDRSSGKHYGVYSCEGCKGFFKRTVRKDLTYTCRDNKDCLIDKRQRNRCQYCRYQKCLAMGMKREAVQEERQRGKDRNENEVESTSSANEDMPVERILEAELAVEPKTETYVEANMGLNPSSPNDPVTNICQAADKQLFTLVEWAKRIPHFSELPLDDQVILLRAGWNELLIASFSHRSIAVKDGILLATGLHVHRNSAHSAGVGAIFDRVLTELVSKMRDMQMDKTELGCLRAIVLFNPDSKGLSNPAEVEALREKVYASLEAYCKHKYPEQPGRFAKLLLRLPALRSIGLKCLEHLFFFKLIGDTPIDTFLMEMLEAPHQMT
Method: (PPARγ-RXRα Heterodimer Ligand Activity)
A PPARγ:RXRα:4ERPP/CHO-K1 cells obtained in Reference Example 5 described later were cultured in HAM F12 medium (produced by NISSUI SEIYAKU) containing 10% Fetal bovine serum (produced by Life Technologies, Inc., USA) and then inoculated to a 96-well white plate (produced by Corning Costar Corporation, USA) at the density of 2×10^4 cells/well, and cultured in a CO2 gas incubator at 37° C. overnight.
After washing the 96 well white plate with PBS (Phosphate-buffered saline), 90 μl of HAM F12 medium containing 0.1% fatty acid-free bovine serum albumin (BSA) and 10 μl of test compound were added, which was cultured in a CO2 gas incubator at 37° C. for 48 hours. After removing the medium, 40 μl of PIKKAGENE 7.5 (produced by Wako Pure Chemical Industries, Ltd.) was added. After stirring, the luciferase activity was determined using Lumistar (produced by BMG Labtechnologies GmbH, Germany).
A fold induction was calculated based on the luciferase activity of each test compound by taking the luciferase activity in the non-treatment group as 1. The values of the test compound concentration and the fold induction were analyzed using PRISM 2.01 (produced by GraphPad Software Inc. USA) to calculate the EC50 values, the effective concentration of a test compound for 50% of the maximum fold induction.
(Introduction of Human PPARγ- and RXRα-Expressing Plasmid and Reporter Plasmid into CHO-K1 Cell and Establishment of Expressed Cell)
After a CHO-K1 cell cultured in a 750 ml tissue culture flask (produced by Corning Costar Corporation, USA) containing HAM F12 medium (produced by NISSUI SEIYAKU) supplemented with 10% Fetal Bovine Serum (produced by Life Technologies, Inc., USA) was scraped by treating with 0.5 g/L trypsin-0.2 g/L EDTA (ethylenediaminetetraacetic acid) (produced by Life Technologies, Inc., USA), the cell was washed with PBS (phosphate-buffered saline) (produced by Life Technologies, Inc., USA), centrifuged (1000 rpm, 5 minutes), and then suspended in PBS. Subsequently, a DNA was introduced into the cell under the condition shown below using GENE PULSER (produced by Bio-Rad Laboratories, USA).
Namely, to a cuvette having a 0.4 cm gap, added were 8×10^6 cells and 10 μg of plasmid pVgRXR2-hPPAR γ obtained in Reference Example 3 and 10 μg of reporter plasmid pGL3-4ERPP-TK neo obtained in Reference Example 4, which was subjected to electroporation at the voltage of 0.25 kV under the capacitance of 960 μF. Subsequently, the cell was transferred into a HAM F12 medium containing 10% Fetal Bovine Serum and cultured for 24 hours and then the cell was scraped again and centrifuged, and then suspended in HAM F12 medium containing 10% Fetal Bovine Serum supplemented with 500 μg/ml of GENETICIN (produced by Life Technologies, Inc., USA) and 250 μg/ml of ZEOCIN (produced by Invitrogen, USA) and diluted to the density of 10^4 cells/ml upon inoculation to a 96-well plate (produced by Corning Costar Corporation, USA), which was cultured in a CO2 gas incubator at 37° C., whereby obtaining a GENETICIN- and ZEOCIN-resistant transformant.
Subsequently, after the transformant cell line thus obtained was cultured in a 24-well plate (produced by Corning Costar Corporation, USA), selected was a cell line in which the luciferase was expressed and induced, i.e., PPARγ:RXRα:4ERPP/CHO-K1 cell by addition of 10 μM pioglitazone hydrochloride.

Row | EC50 | Compound
1 | 0.23 nM | Cc1oc(-c2ccccc2)nc1COc1ccc(Cn2cc(CCC(=O)O)c(-c3ccccc3)n2)cc1 [Example 89, 3-[1-[4-(5-methyl-2-phenyl-4-oxazolylmethoxy)benzyl]-3-phenyl-1H-pyrazol-4-yl]propionic acid]
2 | 33 nM | CCOc1nn(Cc2ccc(OCc3nc(-c4ccccc4)oc3C)nc2)cc1CC(=O)O [Example 262, 3-ethoxy-1-[6-(5-methyl-2-phenyl-4-oxazolylmethoxy)-3-pyridylmethyl]-1H-pyrazol-4-ylacetic acid]
3 | 0.22 nM | Cc1oc(-c2ccccc2)nc1COc1ccc(Cn2cc(CCC(=O)O)c(-c3ccccc3)n2)cn1 [Example 283, 3-[1-[2-(5-methyl-2-phenyl-4-oxazolylmethoxy)-5-pyridylmethyl]-3-phenyl-1H-pyrazol-4-yl]propionic acid]

The remaining lines, values behind:

Row | Compound | EC50
4 | Cc1oc(-c2cccs2)nc1COc1ccc(Cn2cc(CCC(=O)O)c(-c3ccccc3)c2)cc1 [Example 9, 3-[1-[4-[5-methyl-2-(2-thienyl)-4-oxazolylmethoxy]benzyl]-4-phenyl-3-pyrrolyl]propionic acid] | 1.5 nM
5 | O=C(O)CCc1cn(Cc2ccc(OCc3cccnc3)cc2)cc1-c1ccccc1 [Example 12, 3-[4-phenyl-1-[4-(3-pyridylmethoxy)benzyl]-3-pyrrolyl]propionic acid] | 320 nM
6 | O=C(O)CCc1cn(Cc2ccc(OCc3csc(-c4ccccc4)n3)cc2)cc1-c1ccccc1 [Example 30, 3-[4-phenyl-1-[4-(2-phenyl-4-thiazolylmethoxy)benzyl]-3-pyrrolyl]propionic acid] | 9.7 nM
7 | O=C(O)CCc1cn(Cc2ccc(OCc3csc(-c4ccco4)n3)cc2)cc1-c1ccccc1 [Example 38, 3-[1-[4-[2-(2-furyl)-4-thiazolylmethoxy]benzyl]-4-phenyl-3-pyrrolyl]propionic acid] | 38 nM
8 | O=C(O)CCc1cn(Cc2ccc(OCc3csc(-c4cccs4)n3)cc2)cc1-c1ccccc1 [Example 40, 3-[4-phenyl-1-[4-[2-(2-thienyl)-4-thiazolylmethoxy]benzyl]-3-pyrrolyl]propionic acid] | 57 nM
9 | O=C(O)CCc1cn(Cc2ccc(OCc3coc(-c4ccccc4)n3)cc2)cc1-c1ccccc1 [Example 44, 3-[4-phenyl-1-[4-(2-phenyl-4-oxazolylmethoxy]benzyl]-3-pyrrolyl]propionic acid] | 13 nM
